Experiments:
[1] = test system: Chinese hamster ovary (CHO) cells; experiment: in vitro radiosensitization of hypoxic CHO cells, colony formation (Table 1); assay type: cell-based; settings: drug dose 0.5 mM
Method: Cells were plated and allowed to attach on glass petri dishes for 3 h, then the media was replaced with 5 ml of Hank's balanced salt solution (HBSS) with or without drugs. To induce cell hypoxia, the dishes were placed at room temperature into sealed aluminum chambers (8 dishes/chamber). […] This procedure was repeated 4 times with 5 min holding periods under positive gas pressure between evacuations. After 1 h, when the cells were severely hypoxic, the chambers were placed in 37° C. water bath for 1 hr. For oxic treatment groups, cells were placed in 37° C. incubators for 2 h with 5 ml of HBSS (±drugs). The chambers were placed on a rotating table and exposed to an X-ray beam generated by a General Electric Maxitron 300 therapy machine operated at 250 kVp and 20 mA (HVL 20 mm Al filter; dose rate at 2 Gy/min). After irradiation, cells were rinsed with HBSS, and covered with fresh media. Cells were cultured for 7 days in a 37° C. incubator. The resulting cell colonies were stained and counted.

CHO cells = experiment: radiosensitization potency on hypoxic CHO cells at 20% survival, single X ray dose 8 Gy (Table 2); assay type: cell-based, Chinese hamster; settings: Cricetulus griseus, CHO; hypoxic, single X ray dose of 8 Gy; read-out: drug molarity required to reduce cell survival to 20% of the untreated control value
Method: Cells were plated and allowed to attach on glass petri dishes for 3 h, then the media was replaced with 5 ml of Hank's balanced salt solution (HBSS) with or without drugs. To induce cell hypoxia, the dishes were placed at room temperature into sealed aluminum chambers (8 dishes/chamber). The chambers were degassed by pumping, and then back-filled with 95% N2 and 5% CO2. This procedure was repeated 4 times with 5 min holding periods under positive gas pressure between evacuations. After 1 h, when the cells were severely hypoxic, the chambers were placed in 37° C. water bath for 1 hr. For oxic treatment groups, cells were placed in 37° C. incubators for 2 h with 5 ml of HBSS (±drugs). The chambers were placed on a rotating table and exposed to an X-ray beam generated by a General Electric Maxitron 300 therapy machine operated at 250 kVp and 20 mA (HVL 20 mm Al filter; dose rate at 2 Gy/min). After irradiation, cells were rinsed with HBSS, and covered with fresh media. Cells were cultured for 7 days in a 37° C. incubator. The resulting cell colonies were stained and counted.
In the experiment shown in Table 2 hypoxic CHO cells were irradiated with a single X ray dose of 8 Gy, with or without drugs.

[2] = in vitro toxicity on hypoxic CHO cells, colony formation; assay type: cell-based, Chinese hamster; settings: hamster, cho cells, 10 mM, 12 hours at 37° C., read-out: reduction in colony formation
Method: Subsequently, hypoxic CHO cells were incubated with 0.2 mM DATM or 10 mM metro for 12 hours at 37° C.

hypoxic CHO cells = experiment: radiosensitizing hypoxic CHO cells, drugs given 2 hours at 4° C.; assay type: cell-based, Chinese hamster
mice = settings: reported value for metro; cited from earlier work
[3] = test system: viral infections; cutaneous inflammation; eye disorders; settings: cited from earlier work
in vivo = settings: mouse, po
[4] = cited from earlier work

## Cc1ncc([N+](=O)[O-])n1CCO [metronidazole, 1-(2-hydroxyethyl)-2-methyl-5-nitroimidazole]
[1]
  Do: 3.3 Gy
CHO cells
  IC80: 10 mM
[2]
  cytotoxicity at 12 h, 10000 µM: 95%
Hypoxic CHO cells
  radiosensitizing effectiveness, 0.2 mM DATM vs 10 mM metro: equally effective
mice
  LD50: about 3.3 g/kg
[3]
  treatment of cutaneous inflammation due to dermatosis such as eczema, ulcers, acne, and rosacea: effective
  treatment of eye disorders such as blepharoconjunctivitis and meibomian gland dysfunctions: effective
  treatment of viral infections such as measles, herpes, and viral diverticulitis: effective
In vivo
  LD50: ~4000 mg/kg
[4]; as radiosensitizers
  toxicity at therapeutic levels: highly toxic at therapeutic levels
[4]; dermatological use
  photosensitization: photosensitizer

Reference: patent US6060604A, “Pharmaceutical compounds comprising polyamines substituted with electron-affinic groups” (priority 1996, dated 2000)
